The assay addresses T1, clostridial glutamate dehydrogenase (GDH) ([Clostridium] symbiosum, UniProt P24295).
T1 construct: no tag mentioned
T1 sequence (P24295 2-450): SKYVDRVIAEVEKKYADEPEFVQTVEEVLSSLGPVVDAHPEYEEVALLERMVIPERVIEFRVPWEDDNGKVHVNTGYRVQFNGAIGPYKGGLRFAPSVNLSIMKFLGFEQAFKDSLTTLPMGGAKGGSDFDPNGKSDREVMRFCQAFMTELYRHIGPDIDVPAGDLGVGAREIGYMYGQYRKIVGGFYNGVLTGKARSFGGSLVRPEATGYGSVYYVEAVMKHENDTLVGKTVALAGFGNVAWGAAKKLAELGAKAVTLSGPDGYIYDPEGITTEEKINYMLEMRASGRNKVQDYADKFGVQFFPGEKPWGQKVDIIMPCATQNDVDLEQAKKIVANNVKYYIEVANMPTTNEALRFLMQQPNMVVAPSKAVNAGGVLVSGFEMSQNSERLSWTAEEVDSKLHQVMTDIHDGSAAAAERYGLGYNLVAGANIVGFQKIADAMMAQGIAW
The assay is described as follows: protection against DTNB inactivation. The assay is classed as biochemical. Particulars: 0.1 M potassium phosphate, pH 7.0, 25°C, 200 μM DTNB, competitive with DTNB at coenzyme site, Kd corrected for DTNB. The source says:
protection against DTNB inactivation on clostridial glutamate dehydrogenase (GDH)

Read-outs that look alike come from different tables or passages of the source.

Turning to `NC(=O)C1=CN([C@@H]2O[C@H](COP(=O)(O)OP(=O)(O)OC[C@H]3O[C@@H](n4cnc5c(N)ncnc54)[C@H](O)[C@@H]3O)[C@@H](O)[C@H]2O)C=CC1` [NADH], the Kd (read-out: K dNADH) amounted to 24 ± 1 µM.

On to `NC(=O)C1=CN([C@@H]2O[C@H](COP(=O)(O)OP(=O)(O)OC[C@H]3O[C@@H](n4cnc5c(N)ncnc54)[C@H](OP(=O)(O)O)[C@@H]3O)[C@@H](O)[C@H]2O)C=CC1` [NADPH], for which the Kd (read-out: K dNADPH) was 23 ± 1 µM.

For `NC(=O)c1ccc[n+]([C@@H]2O[C@H](COP(=O)(O)OP(=O)(O)OC[C@H]3O[C@@H](n4cnc5c(N)ncnc54)[C@H](O)[C@@H]3O)[C@@H](O)[C@H]2O)c1` [NAD^+], under “read-out: K dNAD+”, the Kd was 335 ± 17 µM.

(Values after article PMC2962915, “The –SH Protection Method for Determining Accurate Kd Values for Enzyme-Coenzyme Complexes of NAD^+-Dependent Glutamate Dehydrogenase and Engineered Mutants: Evidence for Nonproductive NADPH Complexes” (Enzyme Research, 2010).)
